# Activity calls are given as the source filed them. The rule behind the calls is not given here.
# Tested on: rodent carcinogenicity bioassays, tumor incidence
# Experiment: CCRIS carcinogenicity studies
# Procedure, shortened: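 Archive of carcinogenicity, mutagenicity, tumor promotion and tumor inhibition results drawn from journals, NCI reports and other sources, expert-reviewed; covers 1985-2011 and is no longer updated.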
compound,measurement,setting,value
COc1cc(/C=C/C(=O)O[C@H]2CC[C@]34C[C@]35CC[C@]3(C)[C@@H]([C@H](C)CCC=C(C)C)CC[C@@]3(C)[C@@H]5CC[C@H]4C2(C)C)ccc1O,carcinogen call,"Species: MOUSE, Strain/Sex: B6C3F1/FEMALE, Route: ORAL, Dose: 0, 200, 600, 2000 MG/KG/BW A DAY IN DIET FOR 78 WK (STUDY DURATION: 79 WK), Dose: 0, 200, 600, 2000 MG/KG/BW A DAY IN DIET FOR 78 WK (STUDY DURATION: 79 WK)",inactive; negative
same,carcinogen call,"Species: MOUSE, Strain/Sex: B6C3F1/MALE, Route: ORAL, Dose: 0, 200, 600, 2000 MG/KG/BW A DAY IN DIET FOR 78 WK (STUDY DURATION: 79 WK), Dose: 0, 200, 600, 2000 MG/KG/BW A DAY IN DIET FOR 78 WK (STUDY DURATION: 79 WK)",inactive; negative
same,carcinogen call,"Species: RAT, Strain/Sex: F344/FEMALE, Route: ORAL, Dose: 0, 200, 600, 2000 MG/KG/BW/D IN DIET FOR 2 YR (STUDY DURATION: 105 WK), Dose: 0, 200, 600, 2000 MG/KG/BW/D IN DIET FOR 2 YR (STUDY DURATION: 105 WK)",inactive; negative
same,carcinogen call,"Species: RAT, Strain/Sex: F344/MALE, Route: ORAL, Dose: 0, 200, 600, 2000 MG/KG/BW/D IN DIET FOR 2 YR (STUDY DURATION: 105 WK), Dose: 0, 200, 600, 2000 MG/KG/BW/D IN DIET FOR 2 YR (STUDY DURATION: 105 WK)",inactive; negative
CC(F)(Cl)Cl,carcinogen call,"Species: RAT, Strain/Sex: SPRAGUE-DAWLEY/FEMALE, Route: INHALATION, Dose: 0, 1500, 5000, 20000 PPM 6 HR/D 5 D/WK FOR 104 WK (THE HIGH EXPOSURE LEVEL WAS INCREASED FROM 15000 PPM TO 20000 PPM AFT, Dose: 0, 1500, 5000, 20000 PPM 6 HR/D 5 D/WK FOR 104 WK (THE HIGH EXPOSURE LEVEL WAS INCREASED FROM 15000 PPM TO 20000 PPM AFT",inactive; negative
same,carcinogen call,"Species: RAT, Strain/Sex: SPRAGUE-DAWLEY/MALE, Route: INHALATION, Dose: 0, 1500, 5000, 20000 PPM 6 HR/D 5 D/WK FOR 104 WK (THE HIGH EXPOSURE LEVEL WAS INCREASED FROM 15000 PPM TO 20000 PPM AFT, Dose: 0, 1500, 5000, 20000 PPM 6 HR/D 5 D/WK FOR 104 WK (THE HIGH EXPOSURE LEVEL WAS INCREASED FROM 15000 PPM TO 20000 PPM AFT, Tumor Site: Type of Lesion: TESTES: INTERSTITIAL CELL ADENOMA",active; positive
O=[N+]([O-])c1cc([N+](=O)[O-])c2ccc3cccc4ccc1c2c43,carcinogen call,"Species: RAT, Strain/Sex: STRAIN CD/FEMALE, Route: INTRAGASTRIC, Dose: 10 UMOL IN DMSO 3/WK FOR 4 WK (TOTAL DOSE: 16 UMOL/RAT) (STUDY DURATION: 78 WK), Tumor Site: Type of Lesion: ADRENAL GLAND: CORTICAL ADENOMA, PITUITARY GLAND: CARCINOMA",active; positive
same,carcinogen call,"Species: RAT, Strain/Sex: STRAIN CD/FEMALE, Route: INTRAPERITONEAL, Dose: 0, 10 UMOL IN DMSO 3/WK FOR 4 WK (TOTAL DOSE: 16 UMOL/RAT) (STUDY DURATION: 78 WK), Tumor Site: Type of Lesion: MAMMARY GLAND: ADENOCARCINOMA, FIBROADENOMA, ADENOMA",active; positive
same,carcinogen call,"Species: RAT, Strain/Sex: STRAIN-CD/FEMALE, Route: SUBCUTANEOUS, Dose: 0, 6.3 UMOL (TOTAL DOSE) ADMINISTERED OVER 8 WK BEGINNING ON DAY OF BIRTH (STUDY DURATION: 67 WK), Tumor Site: Type of Lesion: INTEGUMENTARY SYSTEM: MALIGNANT FIBROUS HISTIOCYTOMA",active; positive
CN(CCC(=O)O)N=O,carcinogen call,"Species: MOUSE, Strain/Sex: STRAIN-A/FEMALE, Route: INTRAPERITONEAL, Dose: 0, 200 UMOL MOUSE (TOTAL DOSE) ADMINISTERED IN 0.1 ML SALINE 3/WK (TOTAL 20 INJECTIONS) (STUDY DURATION: 37 WK), Tumor Site: Type of Lesion: LUNG: ADENOCARCINOMA, ADENOMA",active; positive
Nc1cc([N+](=O)[O-])ccc1NC(CO)(CO)CO,carcinogen call,"Species: RAT, Strain/Sex: SPRAGUE-DAWLEY/FEMALE, Route: ORAL, Dose: 0, 0.2, 0.6, 2% IN DIET OF MATED AND NONMATED RATS FOR UP TO 6 MO (STUDY DURATION: 6 MO), Dose: 0, 0.2, 0.6, 2% IN DIET OF MATED AND NONMATED RATS FOR UP TO 6 MO (STUDY DURATION: 6 MO), Tumor Site: Type of Lesion: MAMMARY GLAND: TUMOR",active; positive
same,carcinogen call,"Species: RAT, Strain/Sex: SPRAGUE-DAWLEY/MALE, Route: ORAL, Dose: 0, 0.2, 0.6, 2% IN DIET FOR UP TO 6 MO (STUDY DURATION: 6 MO), Dose: 0, 0.2, 0.6, 2% IN DIET FOR UP TO 6 MO (STUDY DURATION: 6 MO)",inactive; negative
COC(=O)C1=CCCN(N=O)C1,carcinogen call,"Species: RAT, Strain/Sex: F344/MALE, Route: ORAL, Dose: 0, 20 PPM IN DRINKING WATER FOR DURATION OF STUDY (TOTAL DOSE: 0; 4.1 MMOL/KG) (STUDY DURATION: 128 WK), Dose: 0, 20 PPM IN DRINKING WATER FOR DURATION OF STUDY (TOTAL DOSE: 0; 4.1 MMOL/KG) (STUDY DURATION: 128 WK), Tumor Site: Type of Lesion: EXOCRINE PANCREAS: ACINAR ADENOMA",active; positive
CCCCCCN(N=O)C(N)=O,carcinogen call,"Species: RAT, Strain/Sex: F344/FEMALE, Route: GAVAGE, Dose: 0, 17.5 MG/ML (TOTAL DOSE 0; 2 MMOL) IN 2 ML ETHYL ACETATE AND CORN OIL (1:2) 2/WK FOR 50 WK (STUDY DURATION: LIFETIME), Dose: 0, 17.5 MG/ML (TOTAL DOSE 0; 2 MMOL) IN 2 ML ETHYL ACETATE AND CORN OIL (1:2) 2/WK FOR 50 WK (STUDY DURATION: LIFETIME), Tumor Site: Type of Lesion: FORESTOMACH: SQUAMOUS CELL CARCINOMA, LUNG: TUMOR, MAMMARY GLAND: TUMOR, UTERUS: TUMOR, Tumor Site: Type of Lesion: FORESTOMACH: SQUAMOUS CELL CARCINOMA, LUNG: TUMOR, MAMMARY GLAND: TUMOR, UTERUS: TUMOR",active; positive
same,carcinogen call,"Species: RAT, Strain/Sex: F344/FEMALE, Route: GAVAGE, Dose: 0, 17.5 MG/ML IN 0.2 ML ETHYL ACETATE AND CORN OIL 2/WK FOR 50 WK (STUDY DURATION: LIFESPAN), Tumor Site: Type of Lesion: FORESTOMACH: TUMOR, LUNG: TUMOR, MAMMARY GLAND: TUMOR, UTERUS: TUMOR, Tumor Site: Type of Lesion: FORESTOMACH: TUMOR, LUNG: TUMOR, MAMMARY GLAND: TUMOR, UTERUS: TUMOR",active; positive
same,carcinogen call,"Species: RAT, Strain/Sex: F344/MALE, Route: GAVAGE, Dose: 0, 17.5 MG/ML (TOTAL DOSE 0; 2 MMOL) IN 2 ML ETHYL ACETATE AND CORN OIL (1:2) 2/WK FOR 50 WK (STUDY DURATION: LIFETIME), Dose: 0, 17.5 MG/ML (TOTAL DOSE 0; 2 MMOL) IN 2 ML ETHYL ACETATE AND CORN OIL (1:2) 2/WK FOR 50 WK (STUDY DURATION: LIFETIME), Tumor Site: Type of Lesion: FORESTOMACH: SQUAMOUS CELL CARCINOMA, LUNG: TUMOR, BODY CAVITY: MESOTHELIOMA, Tumor Site: Type of Lesion: FORESTOMACH: SQUAMOUS CELL CARCINOMA, LUNG: TUMOR, BODY CAVITY: MESOTHELIOMA",active; positive
same,carcinogen call,"Species: RAT, Strain/Sex: F344/MALE, Route: GAVAGE, Dose: 0, 17.5 MG/ML IN 0.2 ML ETHYL ACETATE AND CORN OIL 2/WK FOR 50 WK (STUDY DURATION: LIFESPAN), Tumor Site: Type of Lesion: FORESTOMACH: TUMOR, LUNG: TUMOR, PERITONEUM: MESOTHELIOMA, SKIN: TUMOR, Tumor Site: Type of Lesion: FORESTOMACH: TUMOR, LUNG: TUMOR, PERITONEUM: MESOTHELIOMA, SKIN: TUMOR",active; positive
Cc1cc2ccccc2c2cc([N+](=O)[O-])c3ccccc3c12,carcinogen call,"Species: MOUSE, Strain/Sex: SWISS/FEMALE, Route: INTRAPERITONEAL, Dose: 0, 100 NMOL (TOTAL DOSE) ADMINISTERED 1/7, 2/7 AND 4/7 ON DAY 1, 8 AND 15 RESPECTIVELY (STUDY DURATION: 32 WK), Tumor Site: Type of Lesion: LUNG: TUMOR",active; positive
same,carcinogen call,"Species: MOUSE, Strain/Sex: SWISS/MALE, Route: INTRAPERITONEAL, Dose: 0, 100 NMOL (TOTAL DOSE) ADMINISTERED 1/7, 2/7 AND 4/7 ON DAY 1, 8 AND 15 RESPECTIVELY (STUDY DURATION: 32 WK), Tumor Site: Type of Lesion: LIVER: TUMOR, LUNG: TUMOR",active; positive
COc1nn(CSP(=S)(OC)OC)c(=O)s1,carcinogen call,"Species: DOG, Strain/Sex: BEAGLE/FEMALE, Route: ORAL, Dose: 0, 0.5, 2, 4, 40, 140 PPM IN DIET FOR 1 YR (STUDY DURATION: 1 YR), Dose: 0, 0.5, 2, 4, 40, 140 PPM IN DIET FOR 1 YR (STUDY DURATION: 1 YR)",inactive; negative
same,carcinogen call,"Species: DOG, Strain/Sex: BEAGLE/MALE, Route: ORAL, Dose: 0, 0.5, 2, 4, 40, 140 PPM IN DIET FOR 1 YR (STUDY DURATION: 1 YR), Dose: 0, 0.5, 2, 4, 40, 140 PPM IN DIET FOR 1 YR (STUDY DURATION: 1 YR)",inactive; negative

# Source: PubChem BioAssay AID1259411 (Chemical Carcinogenesis Research Information System (CCRIS), 2018)
